Experimental data published in US10590392B2, “Generation of airway epithelial organoids from human pluripotent stem cells” (TRUSTEES OF BOSTON UNIVERSITY, priority 2017, dated 2020).
Entries after “also recorded” stand apart in the source; their conditions may differ.

What was measured:
[1] = tested on: sorted NKX2-1GFP+ epithelial lung progenitors; test: Purified NKX2-1GFP+ lung progenitors replated in 3D culture with or without CHIR, day 14 to 20; assay type: cell-based, human
Procedure: Cells grown in two-dimensional culture were harvested by incubation with 0.05% Trypsin-EDTA for 10-20 minutes at 37° C. Cells cultured in three-dimensional growth factor reduced Matrigel were harvested by incubation with 2 mg/mL dispase (ThermoFisher) for 30-60 minutes at 37° C. then subsequent incubation with 0.05% trypsin at 37° C. until a single cell suspension was achieved. Cells were washed with media containing 10% fetal bovine serum (FBS, ThermoFisher.) Harvested cells were spun at 300 RCF for 5 minutes at 4° C. and resuspended in buffer containing Hank's Balanced Salt Solution (ThermoFisher), 2% FBS and 10 μM Y-27632 (Tocris) and stained with propidium iodide (ThermoFisher) or calcein blue AM (ThermoFisher) for dead cell exclusion during flow cytometry. Live cells were sorted on a high speed cell sorter (MoFlo Legacy, Beckman Coulter, Pasadena, Calif.) at the Boston University Medical Center Flow Cytometry Core Facility based on NKX2-1GFP expression or by staining for CD47 (Biolegend) and CD26 (Biolegend) and gating for CD47^hi/CD26^−. […]
The final protocol for generating rapidly proximalized NKX2-1+ lung epithelium was replating unsorted or sorted cells for 4 days of culture post-specification in cSFDM containing 10 ng/mL FGF10. […] Cells were analyzed for expression of proximal markers 4 days post-replating in FGF10 media.
The inventors next assessed whether the effect of CHIR manipulation on proximodistal lung patterning was intrinsic to lung epithelial cells rather than due to secondary or bystander effects. […] By day 20, the sorted cells formed small spheres coexpressing NKX2-1 and EPCAM (FIG. 3B-3C). >90% of all outgrowth cells in either culture conditioned maintained NKX2-1^GFP (+CHIR: 98.2±0.5%−CHIR: 93.4±2.3%) (FIG. 3D-3E) and cells in each condition formed organoids with no measured statistical difference in efficiency.

[2] = tested on: iPSC-derived NKX2-1+ lung progenitors; test: Immunofluorescence and intracellular flow cytometry for NKX2-1, SOX2, SOX9, P63 coexpression at day 19; assay type: cell-based, human
Procedure: Cells were harvested for intracellular flow cytometry and fixed for 10-20 minutes at 37° C. in fresh 1.6% paraformeldehyde. Cells were permeabilized with Cell Permeabilization Buffer (eBioscience, San Diego, Calif.) containing 4% normal donkey serum (Sigma) in PBS and stained with primary antibody for NKX2-1 (Abcam # ab76013, rabbit EP1584Y, 1:100) or a conjugated antibody for SOX2 (BD #561506, PerCP-Cy5.5 conjugated, mouse O30-678, 1:100). Anti-NKX2-1 antibody was detected by secondary antibody stainings with either Cy3, Alexa Fluor 488, or Alexa Fluor 647 fluorophore-conjugated secondary antibodies (AffiniPure Donkey Anti-Rabbit IgG (H+L); 1:500; Jackson ImmunoResearch, West Grove, Pa.). Stained cells were analyzed on a FacsCalibur instrument (BD Biosciences, San Jose, Calif.) and data was analyzed with FlowJo software (Ashland, Oreg.).
Cells for immunofluorescence microscopy were cultured on glass coverslips (ThermoFisher). Cultured cells were fixed with fresh 4% paraformeldehyde and stained as described previously(Kurmann et al., 2015). Briefly, cells were permeabilized with 0.3% Triton-X (Sigma) for 10 minutes at room temperature then blocked with 4% normal donkey serum (Sigma) for 30 minutes at room temperature. Cells were incubated with primary antibodies (detailed in Key Resources Table 3) overnight at 4° C., washed, and incubated with secondary antibodies for 30-60 minutes at room temperature. All secondary antibodies were conjugated to Alexa Fluor 488, Cy3, or Alexa Fluor 647 (Jackson Immunoresearch, 1:500). After antibody staining, nuclei were stained with Hoescht dye (ThermoFisher, 1:500). Coverslips with cells were mounted on glass slides using Prolong Diamond Anti-Fade Mounting Reagent (ThermoFisher) and imaged on a Nikon (Tokyo, Japan) deconvolution microscope.
Quantification of nuclear colocalization was performed using Nikon NIS Elements software using the Object Count function. 3-5 areas from each slide were analyzed for each replicate. The total image area where NKX2-1 and SOX2 or P63 overlapped was divided by the area containing only the NKX2-1 stain.

[3] = withdrawal of CHIR, re-sorted NKX2-1GFP+ cells at day 20

Cc1c[nH]c(-c2cnc(NCCNc3ccc(C#N)cn3)nc2-c2ccc(Cl)cc2Cl)n1 [CHIR, CHIR99021]
outgrowth cells maintaining NKX2-1GFP on day 20 ([1]; +CHIR day 14-20, 3D culture of sorted cells, flow cytometry, −CHIR: 93.4±2.3%): 98.2±0.5% | expression of distal lung genes SOX9 and ETV5 [1, 3]: downregulation | expression of proximal lung genes SOX2, SCGB3A2, TP63 [1, 3]: upregulation | cells co-expressing NKX2-1 and P63 ([2]; CHIR withdrawal day 15-19 (FGF10 alone) vs CHIR, immunofluorescence): increased frequencies; also recorded: significantly increased coexpression | percentage of cells coexpressing NKX2-1 and SOX2 ([2]; CHIR withdrawal day 15-19 vs CHIR): significantly higher percentage; also recorded: small but significant increase | NKX2-1+ population expressing SOX2 ([2]; CHIR-treated day 15-19, intracellular flow cytometry, without CHIR 68.0±4.1%): 54.9±5.5% | SOX2+ cells among NKX2-1+ cells ([2]; day 19, with CHIR (also without CHIR)): > 50% | NKX2-1+ cells that were SOX9+ ([2]; sustained CHIR day 15-19, triple immunostaining, 4 days after withdrawal of CHIR <40%): > 90%
